Source: ChEMBL document CHEMBL1135425, “Antitumor agents. 213. Modeling of epipodophyllotoxin derivatives using variable selection k nearest neighbor QSAR method” (J Med Chem, 2002)

Experiments:
Nucleic Acid = test: Ability to form intracellular covalent DNA topoisomerase II complex; activity expressed as the percentage of cellular protein-DNA complex formed (exp-2); assay type: functional, cell-based
[1] = molecular target: T1, DNA topoisomerase II (Homo sapiens) (UniProt P11388+Q02880); test: Ability to form intracellular covalent DNA topoisomerase II complex; activity expressed as the percentage of cellular protein-DNA complex formed (exp-1); assay type: cell-based
[2] = molecular target: T1, DNA topoisomerase II (Homo sapiens); test: Percentage of intracellular covalent DNA-topoisomerase II complexes formed; assay type: cell-based

| SMILES | Complex formation (Nucleic Acid) [%] | Complex formation [1] [%] | Complex formation [2] [%] |
| --- | --- | --- | --- |
| COc1cc([C@@H]2c3cc4c(cc3C(Nc3ccccc3)[C@H]3COC(=O)[C@H]23)OCO4)cc(O)c1O (stereo partly drawn) | 128 | 105 |  |
| COc1cc([C@@H]2c3cc4c(cc3[C@@H](NC(=O)c3ccc(C#N)cc3)[C@H]3COC(=O)[C@H]23)OCO4)cc(OC)c1O |  |  | 159 |
| COc1cc([C@@H]2c3cc4c(cc3[C@@H](Nc3ccc5c(c3)OCO5)[C@H]3COC(=O)[C@H]23)OCO4)cc(OC)c1O |  |  | 164 |
| COC1=CC([C@@H]2c3cc4c(cc3C(NC(=O)N(CCCl)N=O)[C@H]3COC(=O)[C@H]23)OCO4)=CC(=O)C1=O (stereo partly drawn) |  |  | 7 |
| COC(=O)c1cccc(NC2c3cc4c(cc3[C@@H](c3cc(O)c(O)c(OC)c3)[C@H]3C(=O)OC[C@H]23)OCO4)c1 (stereo partly drawn) |  |  | 94 |
| COc1cc([C@@H]2c3cc4c(cc3[C@@H](Nc3ccc(C(=O)O)cc3)[C@H]3COC(=O)[C@H]23)OCO4)cc(OC)c1O |  |  | 6.9 |
| COc1cc([C@@H]2c3cc4c(cc3[C@@H](NCc3ccccc3)[C@H]3COC(=O)[C@H]23)OCO4)cc(OC)c1O |  |  | 181 |
